Measured values as given in patent publication US20250154144A1 (CHILDREN'S HOSPITAL MEDICAL CENTER, priority 2021, published 2025).
Read-outs that look alike come from different tables or passages of the source. Values belong to the molecule of their own block, whether it stands above or below them.

Assays:
[1] = biological target: T1, FLT3 (Homo sapiens, UniProt P36888); assay: RBC HotSpot Kinase Assay, FLT3
T1 sequence (P36888 610-943 limits assumed): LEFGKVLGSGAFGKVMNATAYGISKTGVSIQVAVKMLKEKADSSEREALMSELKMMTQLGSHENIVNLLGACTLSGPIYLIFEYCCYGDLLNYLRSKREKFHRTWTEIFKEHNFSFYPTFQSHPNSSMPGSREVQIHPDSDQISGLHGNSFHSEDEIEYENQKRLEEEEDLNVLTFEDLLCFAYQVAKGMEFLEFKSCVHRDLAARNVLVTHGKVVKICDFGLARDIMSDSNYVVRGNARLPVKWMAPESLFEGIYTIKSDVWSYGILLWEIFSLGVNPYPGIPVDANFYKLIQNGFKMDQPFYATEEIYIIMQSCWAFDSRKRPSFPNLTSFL

[2] = biological target: T2, FLT3 (Homo sapiens, UniProt P36888); assay: Reaction Biology NanoBRET target engagement assay in HEK-293 cells, FLT3
T2 sequence (P36888 27-993): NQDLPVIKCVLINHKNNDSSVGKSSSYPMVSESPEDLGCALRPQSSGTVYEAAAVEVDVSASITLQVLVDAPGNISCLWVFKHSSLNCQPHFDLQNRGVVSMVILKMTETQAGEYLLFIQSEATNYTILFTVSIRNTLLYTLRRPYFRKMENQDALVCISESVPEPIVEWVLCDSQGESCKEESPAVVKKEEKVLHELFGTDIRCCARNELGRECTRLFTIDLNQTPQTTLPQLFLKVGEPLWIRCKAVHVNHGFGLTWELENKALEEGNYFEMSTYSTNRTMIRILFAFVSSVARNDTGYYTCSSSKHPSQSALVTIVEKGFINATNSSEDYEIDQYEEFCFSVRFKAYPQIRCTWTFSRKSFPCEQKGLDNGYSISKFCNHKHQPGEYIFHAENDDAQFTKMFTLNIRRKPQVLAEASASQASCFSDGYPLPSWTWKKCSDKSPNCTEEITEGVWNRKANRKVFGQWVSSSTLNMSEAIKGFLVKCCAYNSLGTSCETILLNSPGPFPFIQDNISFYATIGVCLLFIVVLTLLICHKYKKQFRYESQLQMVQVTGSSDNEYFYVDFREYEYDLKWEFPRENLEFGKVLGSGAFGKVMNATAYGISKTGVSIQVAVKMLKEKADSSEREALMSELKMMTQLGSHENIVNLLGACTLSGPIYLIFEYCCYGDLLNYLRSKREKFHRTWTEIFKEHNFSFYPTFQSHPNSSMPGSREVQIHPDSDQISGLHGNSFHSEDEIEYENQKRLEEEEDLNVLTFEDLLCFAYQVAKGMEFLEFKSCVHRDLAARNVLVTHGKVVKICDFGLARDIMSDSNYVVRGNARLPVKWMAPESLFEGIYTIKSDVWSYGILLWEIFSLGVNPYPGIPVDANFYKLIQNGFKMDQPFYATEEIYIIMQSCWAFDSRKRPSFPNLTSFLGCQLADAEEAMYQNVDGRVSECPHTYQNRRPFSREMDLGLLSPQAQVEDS

[3] = biological target: T3, IRAK4 (Homo sapiens, UniProt Q9NWZ3); assay: RBC HotSpot Kinase Assay, IRAK4; settings: IRAK4 IC50
T3 sequence (Q9NWZ3 1-460): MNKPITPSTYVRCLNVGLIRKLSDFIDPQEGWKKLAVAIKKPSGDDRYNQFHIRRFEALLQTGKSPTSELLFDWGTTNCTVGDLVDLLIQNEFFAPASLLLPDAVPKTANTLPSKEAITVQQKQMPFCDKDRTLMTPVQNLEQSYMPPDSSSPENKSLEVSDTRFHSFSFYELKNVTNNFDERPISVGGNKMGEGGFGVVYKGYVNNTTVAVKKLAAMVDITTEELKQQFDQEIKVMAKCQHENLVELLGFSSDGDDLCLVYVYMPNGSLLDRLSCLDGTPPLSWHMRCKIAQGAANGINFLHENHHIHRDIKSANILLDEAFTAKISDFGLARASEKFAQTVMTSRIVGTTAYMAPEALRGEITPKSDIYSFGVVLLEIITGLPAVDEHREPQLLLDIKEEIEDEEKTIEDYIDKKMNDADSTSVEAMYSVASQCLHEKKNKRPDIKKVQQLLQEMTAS

[4] = biological target: T3, IRAK4; assay: Reaction Biology NanoBRET target engagement assay in HEK-293 cells, IRAK4; settings: NanoBRET IRAK4 IC50, HEK-293 cells
[5] = biological target: IRAK1 (Homo sapiens, UniProt P51617); assay: RBC HotSpot Kinase Assay, IRAK1; settings: IRAK1 IC50
[6] = test system: MOLM14 D835Y cells; assay: cells; assay type: cell-based; settings: 48 hours, Cell Titer Glo, read-out: MOLM14 D835Y IC50
[7] = test system: MOLM14 F691L cells; assay: cells; assay type: cell-based; settings: 48 hours, Cell Titer Glo, read-out: MOLM14 F691L IC50
[8] = test system: THP1 cells; assay: Combination drug screening, Cell Titer Glo, 10 × 10 matrix, THP1 cells; assay type: cell-based; settings: THP1 cells; for Excess HSA Score: 10 × 10
[9] = test system: MOLM14(D835Y) cells; assay type: cell-based; settings: MOLM14(D835Y) cells; for Excess HSA Score: 10 × 10
[10] = NanoBRET FLT3 IC50, HEK-293 cells
[11] = combination with (+)-BAY-1251152
[12] = combination with Eprenetapopt/APR-246
[13] = combination with Venetoclax (ABT-199)

Sequence of IRAK1 (P51617 whole entry): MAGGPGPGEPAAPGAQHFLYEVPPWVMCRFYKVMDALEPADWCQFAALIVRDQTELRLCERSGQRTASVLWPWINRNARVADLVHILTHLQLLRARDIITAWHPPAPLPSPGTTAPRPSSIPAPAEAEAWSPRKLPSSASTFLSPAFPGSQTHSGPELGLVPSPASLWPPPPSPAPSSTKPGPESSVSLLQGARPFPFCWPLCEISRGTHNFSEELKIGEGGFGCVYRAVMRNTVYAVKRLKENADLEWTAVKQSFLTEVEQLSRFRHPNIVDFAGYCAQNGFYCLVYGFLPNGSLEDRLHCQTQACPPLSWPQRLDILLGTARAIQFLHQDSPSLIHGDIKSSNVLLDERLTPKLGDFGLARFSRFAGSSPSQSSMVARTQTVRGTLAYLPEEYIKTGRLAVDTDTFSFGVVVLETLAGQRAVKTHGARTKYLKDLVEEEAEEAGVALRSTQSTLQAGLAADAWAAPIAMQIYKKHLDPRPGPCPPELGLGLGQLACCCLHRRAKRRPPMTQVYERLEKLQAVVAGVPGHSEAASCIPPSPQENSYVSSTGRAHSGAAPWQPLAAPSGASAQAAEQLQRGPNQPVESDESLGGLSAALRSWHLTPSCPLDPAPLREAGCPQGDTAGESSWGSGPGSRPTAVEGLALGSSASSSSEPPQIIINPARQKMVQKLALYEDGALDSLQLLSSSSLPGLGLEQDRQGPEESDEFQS

- IC50 ([1]; read-out: FLT3 IC50): < 0.5 nM
- IC50 [2]: 388 nM
- IC50 [3]: 4 nM
- IC50 [4]: 3 nM
- IC50 [5]: 7 nM
- IC50 [6]: 86 nM
- IC50 [7]: 545 nM
SMILES: CC(O)(c1cn2c(-c3ccnc(N[C@@H]4CCCNC4)n3)cnc2cn1)C(F)(F)F (single isomer, unassigned) [Compound 68]

- IC50 ([1]; FLT3 IC50): < 0.5 nM
- IC50 [2, 10]: 1950 nM
- IC50 [3]: 1 nM
- IC50 [4]: 24 nM
- IC50 [5]: 27 nM
- IC50 [6]: 193 nM
- IC50 ([7]; Homo sapiens, MOLM-14, 48 h): 1220 nM
SMILES: CC(O)(c1cn2c(-c3ccnc(N[C@H]4CNC[C@@H]4F)n3)cnc2cn1)C(F)(F)F (single isomer, unassigned) [Compound 69]

- IC50 ([1]; read-out: FLT3 IC50): < 0.5 nM
- IC50 [2, 10]: 1120 nM
- IC50 [3]: 43 nM
- IC50 [4]: 29 nM
- IC50 [5]: 12 nM
SMILES: CC(O)(c1cn2c(-c3ccnc(N[C@H]4CNCC[C@@H]4F)n3)cnc2cn1)C(F)(F)F (single isomer, unassigned) [Compound 70]

- IC50 ([1]; FLT3 IC50): < 0.5 nM
- IC50 [2, 10]: 3860 nM
- IC50 [3]: 2 nM
- IC50 [4]: 19 nM
- IC50 [5]: 8 nM
- IC50 [6]: 486 nM
- IC50 ([7]; Homo sapiens, MOLM-14, 48 h): 686 nM
SMILES: CC(O)(c1cn2c(-c3cncc(N[C@H]4CNCC[C@@H]4F)n3)cnc2cn1)C(F)(F)F (single isomer, unassigned) [Compound 76]

Second part, the molecule before the results:

SMILES: FC(F)COc1ccn2c(-c3cncc(N[C@H]4CNCC[C@@H]4F)n3)cnc2c1 [Compound 9, 6-(7-(2,2-difluoroethoxy)imidazo[1,2-a]pyridin-3-yl)-N-((3S,4S)-4-fluoropiperidin-3-yl)pyrazin-2-amine]
- IC50 ([1]; FLT3 IC50): < 0.5 nM
- IC50 [2, 10]: 22 nM
- IC50 [3]: 1 nM
- IC50 [4]: < 0.5 nM
- IC50 [5]: 65 nM
- IC50 ([6]; Homo sapiens, MOLM-14, 48 h): 19 nM
- IC50 ([7]; Homo sapiens, MOLM-14, 48 h): 31 nM

SMILES: FC(F)Oc1ccn2c(-c3cncc(N[C@H]4CNCC[C@@H]4F)n3)cnc2c1 [Compound 15, 6-(7-(difluoromethoxy)imidazo [1,2-a]pyridin-3-yl)-N-((3S,4S)-4-fluoropiperidin-3-yl)pyrazin-2-amine]
- IC50 ([1]; FLT3 IC50): < 0.5 nM
- IC50 [2, 10]: 367 nM
- IC50 [3]: 4 nM
- IC50 [4]: 10 nM
- IC50 [5]: 69 nM
- IC50 ([6]; Homo sapiens, MOLM-14, 48 h): 77 nM
- IC50 ([7]; Homo sapiens, MOLM-14, 48 h): 154 nM

SMILES: CC(C)(O)c1ccc2ncc(-c3cncc(N[C@H]4CNCC[C@@H]4F)n3)n2c1 [Compound 18, 2-(3-(6-(((3S,4S)-4-fluoropiperidin-3-yl)amino)pyrazin-2-yl)imidazo[1,2-a]pyridin-6-yl)propan-2-ol]
- IC50 ([1]; FLT3 IC50): 1 nM
- IC50 [2, 10]: 2820 nM
- IC50 [3]: 3 nM
- IC50 [4]: 0.8 nM
- IC50 [5]: 116 nM

SMILES: COc1cc2ncc(-c3cncc(N[C@H]4CNCC[C@@H]4F)n3)n2cc1C(C)(C)O [Compound 21, 2-(3-(6-(((3S,4S)-4-fluoropiperidin-3-yl)amino)pyrazin-2-yl)-7-methoxyimidazo[1,2-a]pyridin-6-yl)propan-2-ol]
- IC50 ([1]; FLT3 IC50): < 0.5 nM
- IC50 [2, 10]: 159 nM
- IC50 [3]: < 0.5 nM
- IC50 [4]: < 0.5 nM
- IC50 [5]: 0.5 nM
- IC50 ([6]; Homo sapiens, MOLM-14, 48 h): 27 nM
- IC50 ([7]; Homo sapiens, MOLM-14, 48 h): 34 nM

SMILES: FC(F)COc1ccn2c(-c3ccnc(N[C@H]4CNCC[C@@H]4F)n3)cnc2c1 [Compound 33, 4-(7-(2,2-difluoroethoxy)imidazo[1,2-a]pyridin-3-yl)-N-((3S,4S)-4-fluoropiperidin-3-yl)pyrimidin-2-amine]
- IC50 ([1]; FLT3 IC50): < 0.5 nM
- IC50 [3]: 2 nM
- Excess HSA Score [8, 11]: −13.85
- Excess HSA Score ([8]; combination with AMG-232): −215.5
- Excess HSA Score ([8]; combination with AZD-5363): −132.5
- Excess HSA Score [8, 12]: 545.1487
- Excess HSA Score ([8]; combination with Ivosidenib): −154.2
- Excess HSA Score ([8]; combination with Lenalidomide): 178.6
- Excess HSA Score ([8]; combination with Palbociclib): −194.6
- Excess HSA Score ([8]; combination with Prednisolone): 467.2
- Excess HSA Score ([8]; combination with SNDX-5613): 587.7
- Excess HSA Score ([8]; combination with TNO-155): −195.2
- Excess HSA Score ([8]; combination with Trametinib): −463.7
- Excess HSA Score ([8]; combination with Ulixertinib): −63.1
- Excess HSA Score [8, 13]: −1595
- Comments ([8]; combination with Lenalidomide): Antagonistic
- Comments [8, 13]: Synergistic
- IC50 [5]: 30 nM
- Excess HSA Score [9, 11]: 684.1
- Excess HSA Score ([9]; combination with AMG-232): −604.4
- Excess HSA Score ([9]; combination with AZD-5363): 320.5
- Excess HSA Score [9, 12]: −279.9
- Excess HSA Score ([9]; combination with Ivosidenib): −12.14
- Excess HSA Score ([9]; combination with Lenalidomide): −11.33
- Excess HSA Score ([9]; combination with Palbociclib): 347
- Excess HSA Score ([9]; combination with Prednisolone): −659.1
- Excess HSA Score ([9]; combination with SNDX-5613): 95.25
- Excess HSA Score ([9]; combination with TNO-155): 177.1
- Excess HSA Score ([9]; combination with Trametinib): −226.8
- Excess HSA Score ([9]; combination with Ulixertinib): −441.5
- Excess HSA Score [9, 13]: −315.6
- Comments ([9]; combination with Prednisolone): Synergistic
- Comments ([9]; combination with SNDX-5613): Antagonistic
- IC50 ([6]; Homo sapiens, MOLM-14, 48 h): 7 nM
- IC50 ([7]; Homo sapiens, MOLM-14, 48 h): 55 nM

SMILES: CC(C)(O)c1ccc2ncc(-c3ccnc(N[C@H]4CNCC[C@@H]4F)n3)n2c1 [Compound 42, 2-(3-(2-(((3S,4S)-4-fluoropiperidin-3-yl)amino)pyrimidin-4-yl)imidazo[1,2-a]pyridin-6-yl)propan-2-ol]
- IC50 ([1]; FLT3 IC50): < 0.5 nM
- IC50 [2, 10]: 137 nM
- IC50 [3]: 4 nM
- IC50 [4]: 2 nM
- IC50 [5]: 158 nM
